The values that follow come from US4086349A, “Quinolopyran-4-one-2-carboxylic acid derivatives and salts thereof as novel compounds and as medicines for treatment of allergic asthma” (Mitsubishi Yuka Pharmaceutical Co., Ltd., priority 1975, dated 1978).

The subject of data set [1] is passive cutaneous anaphylaxis. Nature of the data set: Passive cutaneous anaphylaxis tests (PCA) on rats. It counts as in vivo, SLC-strain Wistar rat. To be noted: intravenous, rat PCA; for inhibition in vivo at 3 mg/kg / inhibition in vivo at 0.3 mg/kg: read-out: Inhibition rate. On the procedure: To test the effectiveness of compounds of this invention for treatment of allergic asthma, evaluation of antiallergy effect was carried out by passive cutaneous anaphylaxis tests (PCA) on rats.
Rats (SLC-strain Wistar rat) were immunized with egg albumin which had been recrystallized five times and Bodetella pertussis vaccine, and, after 13 days, serum was taken from these rats.
This serum was diluted to 1/128 and intradermally injected into the back of rats. 48 hours thereafter, the compounds of the invention as set forth in the following table in the form of salts thereof with tris (hydroxymethyl)methyl ammonium dissolved in saline in the indicated quantities as the salts were administered intravenously, and 5 minutes thereafter, saline in which egg albumin and Evans Blue were dissolved was challenged intravenously. After 30 minutes, the animals were killed and the skins were removed and the quantity of the Evans Blue which has leaked as a result of the antigen antibody reaction was extracted through the use of Na2 SO4 solution and acetone, colorimetry being carried out at 620 mμ.

For another data set, the system named is allergic asthma. In words: Classification in view of activity on treatment of allergic asthma. It counts as in vivo. To be noted: first group most preferable, second more preferable, third preferable.
Data set [2] is described as follows: 50% lethal dose (LD50), i.v., mouse. Particulars: in vivo, iv.
The mark [3] stands for this setting: dose 3 mg/kg (quantity as the tris (hydroxymethyl) methyl ammonium salt).
[4] abbreviates: dose 0.3 mg/kg (quantity as the tris (hydroxymethyl) methyl ammonium salt).

Regarding `COc1cc2nc(O)c3c(=O)cc(C(=O)O)oc3c2cc1OC` [Compound 16, 8,9-dimethoxy-5-hydroxy-quinolo[4,3-b]-pyran-4-one-2-carboxylic acid], the inhibition in vivo at 3 mg/kg in data set [1] (setting [3]) is 90%.
With `Cc1cc(C)c2nc(O)c3c(=O)cc(C(=O)O)oc3c2c1` [Compound 12, 7,9-dimethyl-5-hydroxy-quinolo[4,3-b]-pyran-4-one-2-carboxylic acid], the inhibition in vivo at 3 mg/kg in data set [1] (setting [3]) amounted to 90%.
Still for that read-out and setting: the value for `CCc1ccc2nc(O)c3c(=O)cc(C(=O)O)oc3c2c1` [Compound 17, 9-ethyl-5-hydroxy-quinolo[4,3-b]-pyran-4-one-2-carboxylic acid] was 90%.
Turning to `Cc1c(Cl)ccc2c1nc(O)c1c(=O)cc(C(=O)O)oc12` [Compound 11, 7-methyl-8-chloro-5-hydroxy-quinolo[4,3-b]-pyran-4-one-2-carboxylic acid], the “preference group in view of activity on treatment of allergic asthma” value (“preference group in view of activity” below) in the data set with allergic asthma is recorded as “more preferable”. For the same compound, the Inhibition rate in data set [1] (setting [4]) was 26%; in data set [1] (setting [3]), 87%.
As to `COc1ccc2c(c1)nc(O)c1c(=O)cc(C(=O)O)oc12` [Compound 15, 8-methoxy-5-hydroxy-quinolo[4,3-b]-pyran-4-one-2-carboxylic acid], in data set [1] (setting [3]), the inhibition in vivo at 3 mg/kg stood at 90%.
Regarding `Cc1ccc2nc(O)c3c(=O)cc(C(=O)O)oc3c2c1` [Compound 2, 9-methyl-5-hydroxy-quinolo [4,3-b]-pyran-4-one-2-carboxylic acid], the “preference group in view of activity” value with allergic asthma was “most preferable”. For the same compound, the inhibition in vivo at 0.3 mg/kg in data set [1] (setting [4]) stood at 63%. For the same compound, the inhibition in vivo at 3 mg/kg in data set [1] (setting [3]) turned out to be 100%.
`O=C(O)c1cc(=O)c2c(O)nc3ccc(OCc4ccccc4)cc3c2o1` [Compound 8, 9-benzyloxy-5-hydroxy-quinolo[4,3-b]-pyran-4-one-2-carboxylic acid]: in the data set on allergic asthma, the “preference group in view of activity” value is given as “more preferable”. In addition, the inhibition in vivo at 0.3 mg/kg in data set [1] (setting [4]) stood at 34%. Besides, in data set [1] (setting [3]), the inhibition in vivo at 3 mg/kg was determined as 96%.
Regarding `O=C(O)c1cc(=O)c2c(O)nc3ccc(-c4ccccc4)cc3c2o1` [Compound 10, 9-phenyl-5-hydroxy-quinolo[4,3-b]-pyran-4-one-2-carboxylic acid], the “preference group in view of activity” value in the data set on allergic asthma is reported as “preferable”. Further, the inhibition in vivo at 3 mg/kg in data set [1] (setting [3]) amounted to 90%.
`Cc1ccc2c(nc(O)c3c(=O)cc(C(=O)O)oc32)c1C` [Compound 1, 7,8-dimethyl-5-hydroxy-quinolo [4,3-b]-pyran-4-one-2-carboxylic acid]: the “preference group in view of activity” value with allergic asthma is given as “most preferable”. Further, in data set [2], the LD50 amounted to 560 mg/kg and the selectivity ratio amounted to 20000. Also, the inhibition in vivo at 0.3 mg/kg in data set [1] (setting [4]) came to 98%. Further, the inhibition in vivo at 3 mg/kg in data set [1] (setting [3]) amounted to 100%.
Regarding `CCOC(=O)c1ccc2nc(O)c3c(=O)cc(C(=O)O)oc3c2c1` [Compound 9, 9-ethoxycarbonyl-5-hydroxy-quinolo[4,3-b]-pyran-4-one-2-carboxylic acid], the “preference group in view of activity” value in the data set with allergic asthma was “more preferable”. Also, in data set [1] (setting [4]), the inhibition in vivo at 0.3 mg/kg stood at 39%. The inhibition in vivo at 3 mg/kg in data set [1] (setting [3]) was 100%.
Turning to `COc1cccc2c1nc(O)c1c(=O)cc(C(=O)O)oc12` [Compound 5, 7-methoxy-5-hydroxy-quinolo[4,3-b]-pyran-4-one-2-carboxylic acid], in data set [1] (setting [4]), the inhibition in vivo at 0.3 mg/kg was 37%. Also, the inhibition in vivo at 3 mg/kg in data set [1] (setting [3]) is 98%.
`O=C(O)c1cc(=O)c2c(O)nc3ccc(Cl)cc3c2o1` [Compound 7, 9-chloro-5-hydroxy-quinolo[4,3-b]-pyran-4-one-2-carboxylic acid]: in the data set on allergic asthma, the “preference group in view of activity” value is on record as “most preferable”. For the same compound, the inhibition in vivo at 0.3 mg/kg in data set [1] (setting [4]) was 67%. Also, in data set [1] (setting [3]), the inhibition in vivo at 3 mg/kg came to 100%.
`COc1ccc2nc(O)c3c(=O)cc(C(=O)O)oc3c2c1` [Compound 4, 9-methoxy-5-hydroxy-quinolo[4,3-b]-pyran-4-one-2-carboxylic acid]: the inhibition in vivo at 0.3 mg/kg in data set [1] (setting [4]) was found to be 38%. The inhibition in vivo at 3 mg/kg in data set [1] (setting [3]) is 98%.
Turning to `O=C(O)c1cc(=O)c2c(O)nc3ccc(F)cc3c2o1` [Compound 14, 9-fluoro-5-hydroxy-quinolo[4,3-b]-pyran-4-one-2-carboxylic acid], in data set [1] (setting [3]), the inhibition in vivo at 3 mg/kg turned out to be 90%.
Take `O=C(O)c1cc(=O)c2c(O)nc3ccc(Br)cc3c2o1` [Compound 13, 9-bromo-5-hydroxy-quinolo[4,3-b]-pyran-4-one-2-carboxylic acid]: the inhibition in vivo at 3 mg/kg in data set [1] (setting [3]) turned out to be 90%.
Regarding `CCCCc1ccc2nc(O)c3c(=O)cc(C(=O)O)oc3c2c1` [Compound 6, 9-n-butyl-5-hydroxy-quinolo[4,3-b]-pyran-4-one-2-carboxylic acid], the inhibition in vivo at 0.3 mg/kg in data set [1] (setting [4]) worked out at 26%. Further, in data set [1] (setting [3]), the inhibition in vivo at 3 mg/kg was determined as 94%.
Taken in the same sequence, the figures for `Cc1cccc2c1nc(O)c1c(=O)cc(C(=O)O)oc12` [Compound 3, 7-methyl-5-hydroxy-quinolo [4,3-b]-pyran-4-one-2-carboxylic acid] were 27% and 100%.
